Assay results: ChEMBL document CHEMBL5226281, “Synergistic effects of curcumin and its analogs with other bioactive compounds: A comprehensive review” (Eur J Med Chem, 2021)
pIC50: −log10 of the molar value.

Tests used:
[1] = system: Plasmodium falciparum; experiment: Antimalarial activity against Plasmodium falciparum infected in mouse assessed as survival at 0.5 mg/kg, po measured after 40 days relative to control; format: functional; conditions: time 40 day
[2] = system: DLD-1; experiment: Synergistic antiproliferative activity against human DLD-1 cells assessed as inhibition of cell growth; format: functional, cell-based
[3] = Induction of apoptosis in rat AY-27 cells at 10 uM by Annexin V-PE and 7AAD staining based flow cytometry; format: functional
[4] = system: Y79; experiment: Antiproliferative activity against human Y79 cells assessed as inhibition of cell growth incubated for 48 hrs by MTT assay; format: functional, cell-based; conditions: Y79, 48 h
[5] = Antiproliferative activity against human WERI-Rb-1 cells assessed as inhibition of cell growth incubated for 48 hrs by MTT assay; format: functional, cell-based; conditions: WERI-Rb-1, 48 h
[6] = system: MCF7; experiment: Synergistic antiproliferative activity against human MCF7 cells assessed as inhibition of cell growth; format: functional; parameters: scale not given: the % may be the effect or the level left
[7] = Antiproliferative activity against rat AY-27 cells assessed as inhibition of cell growth incubated for 3 hrs by MTT assay; format: functional; parameters: scale not given: the % may be the effect or the level left
[8] = system: HCT-116; experiment: Synergistic antiproliferative activity against human HCT-116 cells assessed as inhibition of cell growth; format: functional, cell-based
[9] = system: HSC-2; experiment: Synergistic cytotoxicity against human HSC-2 cells; format: functional, cell-based
[10] = molecular target: Mitogen-activated protein kinase 8 (Homo sapiens) (UniProt P45983); experiment: Activation of JNK in human CMT12 cells; format: cell-based
Chain of Mitogen-activated protein kinase 8 (Homo sapiens) (P45983 whole entry): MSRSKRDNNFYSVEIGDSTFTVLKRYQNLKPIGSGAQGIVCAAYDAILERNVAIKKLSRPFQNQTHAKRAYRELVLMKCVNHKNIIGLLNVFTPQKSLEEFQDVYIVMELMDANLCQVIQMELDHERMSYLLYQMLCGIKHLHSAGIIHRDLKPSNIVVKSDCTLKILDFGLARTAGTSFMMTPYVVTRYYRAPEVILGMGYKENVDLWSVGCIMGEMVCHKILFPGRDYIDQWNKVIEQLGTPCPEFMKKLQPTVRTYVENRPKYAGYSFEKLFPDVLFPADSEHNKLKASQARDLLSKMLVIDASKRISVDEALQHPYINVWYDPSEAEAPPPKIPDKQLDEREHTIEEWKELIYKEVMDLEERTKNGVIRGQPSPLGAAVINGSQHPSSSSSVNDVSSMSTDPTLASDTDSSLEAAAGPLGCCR

Row | SMILES | Activity [1] | pIC50 [2] | Activity [3] | pIC50 [4] | pIC50 [5] | Activity [6] | Activity [7] | pIC50 [8] | pIC50 [9] | Activity [10]
1 | C[C@@H]1CC[C@H]2[C@@H](C)C(=O)O[C@@H]3O[C@@]4(C)CC[C@@H]1[C@]32OO4 [ARTEMISININ] | 100% |  |  |  |  |  |  |  |  | 
2 | COc1cc(/C=C/C(=O)CC(=O)/C=C/c2ccc(O)c(OC)c2)ccc1O [CURCUMIN] |  | 5.00 | 36% | 4.52 | 4.60 | 65.92% | 85% | 5.00 | 5.51 | 30%
3 | Oc1ccc(/C=C/c2cc(O)cc(O)c2)cc1 [RESVERATROL] |  |  |  |  |  |  |  |  | 5.51 | 
